Several values for one entry are separate records, joined by “and”; a condition that tells them apart may be missing. Equal entries are not always repeated.
Tests used:
[1] = test system: A/WSN/33 virus; experiment: Influenza A viral growth assay (viral titer of culture media); assay type: cell-based, influenza A H1N1 virus; conditions: A/WSN/33 (WSN), 12.5uM; for viral titer of culture media, ave: average of #1-3 exp (n=9); for viral titer of culture media, individual replicate: replicates of #1-3 exp
[2] = test system: NAD(P)H quinone oxidoreductase 1 (Nqo1); experiment: RT-qPCR of Nqo1 mRNA in MDCK cells with or without A/PR/8/34 virus; assay type: cell-based, canine; conditions: 12.5uM, MDCK, relative to virus - DMSO; for NQO1 Canis lupus mRNA, ave: ave of #1-3 exp; for NQO1 Canis lupus mRNA, individual replicates: replicates 1-3 of #1, #2, #3 exp, listed as Cyclobakuchiol C
[3] = test system: canine interferon-β (Ifn-β); experiment: RT-qPCR of Ifn-β mRNA in MDCK cells with or without A/PR/8/34 virus; assay type: cell-based; conditions: 12.5uM, relative to virus - DMSO; for MDCK IFN-b mRNA, ave: ave of #1-3 exp; for MDCK IFN-b mRNA, individual replicates: replicates 1-3 of #1, #2, #3 exp, listed as Cyclobakuchiol C
[4] = test system: A/PR/8/34 virus; experiment: RT-qPCR of viral mRNAs (NP, NS1, PA, PB1, PB2, M2) in infected MDCK cells; assay type: cell-based, influenza A H1N1 virus
[5] = test system: Nrf2; experiment: Nrf2 reporter assay (dual luciferase system) in MDCK cells; assay type: cell-based, canine; conditions: 12.5uM, relative to DMSO trans+
Protocol: An Nrf2 reporter assay based on the dual luciferase system was performed as previously described. The plasmid pNQO1-ARE (antioxidant response element)-Fluc, provided by Yamamoto M., expressed a Firefly luciferase gene driven by Nrf2 activation, while the plasmid pRL-TK-Rluc vector (Promega, CA, USA) expressed a Renilla luciferase gene driven by the herpes simplex viral thymidine kinase promoter as an internal control. MDCK cells were seeded in a 24-well plate at 1 × 10^5 cells/well and transfected with pNQO1-ARE-luc (0.25 μg) and pRL-TK-Rluc (0.25 μg). At 24 h post-transfection, the cells were treated with 12.5 μM cyclobakuchiols A–D in the infection medium at 37°C under 5% CO2. DMSO (0.125%) and 12.5 μM 1 were used as negative and positive controls, respectively. Total RNA was extracted from the MDCK cell lysates after 24 h of incubation. The levels of Firefly and Renilla luciferase mRNAs were analyzed by RT-qPCR and normalized to that of β-actin mRNA.

[6] = test system: A/PR/8/34 virus; experiment: Immunofluorescence staining of viral NP in influenza A virus-infected MDCK cells; conditions: for NP/DAPI (%) ave: average of 9 wells
Protocol: (§1) MDCK cells were seeded on a 96-well plate at 1 × 10^4 cells/well. […] Each mixture was added to the cells at 37°C in the presence of 5% CO2. […] After influenza A viral infection for 24 h, the cells were fixed with 4% paraformaldehyde in phosphate-buffered saline (PBS) for 30 min at 4°C and subsequently permeabilized by the addition of 0.3% Triton X-100 for 20 min at 25°C. A mouse primary antibody was used to detect the NP of A/PR/8/34 or A/WSN/33 viruses (FluA-NP 4F1; SouthernBiotech, AL, USA). Alexa Fluor488-conjugated goat anti-mouse IgG (H + L) antibody (Thermo Fisher Scientific) was used as the secondary antibody. Cell nuclei were then stained using diamidino-2-phenylindole (DAPI) (Thermo Fisher Scientific). Wells were photographed using a fluorescence microscope (BIOREVO BZ-X700; Keyence, Osaka, Japan). The proportion of influenza A NP-positive cells per DAPI-positive cells was calculated based on measurements recorded using BZ-X Analyzer software (Keyence).

[7] = test system: A/WSN/33 virus; experiment: as above; conditions: WSN
Protocol: as §1

[8] = test system: A/PR/8/34 virus; assay type: cell-based; conditions: 12.5 μM, 24h WB
[9] = test system: A/PR/8/34 virus; experiment: Influenza A viral growth assay (viral titer of culture media); assay type: cell-based, influenza A H1N1 virus; design: viral titer of culture media, individual replicate / viral titer of culture media, ave: unit not given here; conditions: A/PR/8/34 (PR8), 12.5uM; for viral titer of culture media, ave: average of #1-3 exp (n=9); for viral titer of culture media, individual replicate: replicates of #1-3 exp
[10] = MDCK cells, PR8 virus, relative to DMSO (about 1), ave of #1-3 exp (9 values)
[11] = MDCK cells, PR8 virus, relative to DMSO, replicates 1-3 of #1, #2, #3 exp, listed as Cyclobakuchiol C
[12] = single experiment, listed as cyclo C

Compound: C=C[C@]1(C)CCC(C(C)(C)O)C(c2ccc(O)cc2)C1 (stereo in doubt) [cyclobakuchiol C]
- viral titer of culture media, ave ([1]; 12h): 8288.89
- viral titer of culture media, ave ([1]; 24h): 21277778
- viral titer of culture media, ave ([1]; 48h): 246888889
- viral titer of culture media, ave ([1]; 72h): 155211111
- NQO1 Canis lupus mRNA, ave ([2]; virus + (PR8)): 1.3
- NQO1 Canis lupus mRNA, individual replicates ([2]; virus + (PR8)): 1.5721 and 1.53 and 1.546 and 1.742 and 0.864 and 0.8958 and 0.9507 and 1.371 and 1.2312
- NQO1 Canis lupus mRNA, ave ([2]; virus -): 1.195
- NQO1 Canis lupus mRNA, individual replicates ([2]; virus -): 1.246 and 1.375 and 1.298 and 1.334 and 1.006 and 1.078 and 1.116 and 1.24 and 1.059
- MDCK IFN-b mRNA, ave ([3]; virus +): 8.927
- MDCK IFN-b mRNA, individual replicates ([3]; virus +): 3.309 and 15.7023 and 10.0086 and 14.1468 and 10.7403 and 6.351 and 9.878 and 6.251 and 3.957
- MDCK IFN-b mRNA, ave ([3]; virus -): 1.684
- MDCK IFN-b mRNA, individual replicates ([3]; virus -): 0.8094 and 4.073 and 2.562 and 3.148 and 0.7696 and 1.281 and 1.389 and 0.8375 and 0.2824
- PR8 NP gene expression qPCR, ave ([4]; MDCK PR8, NP mRNA, relative (DMSO about 1), average of #1-3 exp (n=9)): 0.0715
- PR8 NP gene expression qPCR, individual replicate ([4]; MDCK PR8, NP mRNA, relative (DMSO about 1), replicates of #1-3 exp, listed as Cyclobakuchiol C): 0.02965 and 0.0515 and 0.04036 and 0.08601 and 0.1343 and 0.1201 and 0.1206 and 0.03078 and 0.03024
- PR8 NS1 gene expression qPCR, ave ([4]; MDCK PR8, NS1 mRNA, relative (DMSO about 1), average of #1-3 exp (n=9)): 0.04238
- PR8 NS1 gene expression qPCR, individual replicate ([4]; MDCK PR8, NS1 mRNA, relative (DMSO about 1), replicates of #1-3 exp, listed as Cyclobakuchiol C): 0.02453 and 0.03462 and 0.02897 and 0.02312 and 0.08062 and 0.06227 and 0.07687 and 0.03138 and 0.01906
- PR8 PA gene expression qPCR, ave ([4]; MDCK PR8, PA mRNA, relative (DMSO about 1), average of #1-3 exp (n=9)): 0.04976
- PR8 PA gene expression qPCR, individual replicate ([4]; MDCK PR8, PA mRNA, relative (DMSO about 1), replicates of #1-3 exp, listed as Cyclobakuchiol C): 0.02841 and 0.03504 and 0.0209 and 0.04366 and 0.1014 and 0.08076 and 0.0804 and 0.03232 and 0.02491
- PR8 M2 gene expression qPCR, ave [4, 10]: 0.05203
- PR8 PB1 gene expression qPCR, ave [4, 10]: 0.0394
- PR8 PB2 gene expression qPCR, ave [4, 10]: 0.05178
- PR8 M2 gene expression qPCR, individual replicates [4, 11]: 0.02539 and 0.04593 and 0.02488 and 0.06301 and 0.1078 and 0.07697 and 0.07009 and 0.03046 and 0.02377
- PR8 PB1 gene expression qPCR, individual replicates [4, 11]: 0.02851 and 0.01826 and 0.01255 and 0.01866 and 0.09078 and 0.07015 and 0.07353 and 0.02182 and 0.02034
- PR8 PB2 gene expression qPCR, individual replicates [4, 11]: 0.02749 and 0.04527 and 0.0229 and 0.05473 and 0.1042 and 0.07786 and 0.07787 and 0.03099 and 0.02468
- pNQO1-ARE-Luc NRF2 reporter assay, ave ([5]; ave of #1-3 exp): 1.343
- pNQO1-ARE-Luc NRF2 reporter assay, individual replicates ([5]; two values each of #1, #2, #3 exp, listed as Cyclobakuchiol C): 1.496 and 1.13 and 1.492 and 1.034 and 1.043 and 1.865
- NP/DAPI (%) ave ([6]; A/PR/8/34, 3.13 uM): 6.545%
- NP/DAPI (%) ave ([6]; A/PR/8/34, 6.25 uM): 2.732%
- NP/DAPI (%) ave ([6]; A/PR/8/34, 12.5 uM): 1.281%
- NP/DAPI (%) ave ([6]; A/PR/8/34, 25 uM): 1.024%
- IC50 ([6]; Influenza A virus, PR/8, MDCK, read-out: half maximal (50%) inhibitory concentration (IC50)): 4.6 ± 2.2 µM
- NP/DAPI (%) ave ([7]; 3.13uM, ave of 9 values (3 exp)): 25.0115%
- NP/DAPI (%) ave ([7]; 6.25uM, ave of 9 values (3 exp)): 26.7813%
- NP/DAPI (%) ave ([7]; 12.5uM, ave of 9 values (3 exp)): 26.2263%
- NP/DAPI (%) ave ([7]; 25uM, ave of 9 values (3 exp)): 34.9195%
- NP/DAPI (%) ave ([7]; ave summary, 3.13%): 25.0115%
- NP/DAPI (%) ave ([7]; ave summary, 6.25%): 26.7813%
- NP/DAPI (%) ave ([7]; ave summary, 12.50%): 26.2263%
- NP/DAPI (%) ave ([7]; ave summary, 25%): 34.9195%
- NP/b-actin ave ([8]; average of 3 experiments): 0.8052
- NS1/b-actin ave ([8]; average of 3 experiments): 0.5534
- NP mean (western blot signal intensity, ImageJ) [8, 12]: 91.764 and 95.052 and 111.845
- NP/b-actin [8, 12]: 0.819 and 0.7 and 0.8964
- NS1/b-actin [8, 12]: 0.4287 and 0.5327 and 0.6988
- NS1 mean (western blot signal intensity, ImageJ) [8, 12]: 69.827 and 74.096 and 58.545
- viral titer of culture media, ave ([9]; 12h): 33333.3
- viral titer of culture media, ave ([9]; 24h): 52222.2
- viral titer of culture media, ave ([9]; 48h): 37777.8
- viral titer of culture media, ave ([9]; 72h): 43333.3

Compound: C=C[C@]1(C)CC[C@H](C(C)(C)O)[C@@H](c2ccc(O)cc2)C1 [(1R,3R,4R)-cyclobakuchiol C]
- viral titer of culture media, ave ([1]; 12h): 8288.89
- viral titer of culture media, individual replicate ([1]; 12h): 3000 and 1000 and 600 and 10000 (5×) and 20000
- viral titer of culture media, ave ([1]; 24h): 21277778
- viral titer of culture media, individual replicate ([1]; 24h): 1600000 and 1000000 and 900000 and 30000000 (2×) and 21000000 and 9000000 and 70000000 and 28000000
- viral titer of culture media, ave ([1]; 48h): 246888889
- viral titer of culture media, individual replicate ([1]; 48h): 100000000 and 150000000 and 62000000 and 140000000 and 350000000 (2×) and 410000000 and 280000000 and 380000000
- viral titer of culture media, ave ([1]; 72h): 155211111
- viral titer of culture media, individual replicate ([1]; 72h): 10000000 and 20000000 and 6900000 and 130000000 and 170000000 and 230000000 (2×) and 300000000 (2×)
- viral titer of culture media, ave ([9]; 12h): 33333.3
- viral titer of culture media, individual replicate ([9]; 12h): 40000 and 60000 (2×) and 30000 (2×) and 10000 (3×) and 50000
- viral titer of culture media, ave ([9]; 24h): 52222.2
- viral titer of culture media, individual replicate ([9]; 24h): 190000 and 20000 and 90000 and 10000 (3×) and 70000 and 40000 and 30000
- viral titer of culture media, ave ([9]; 48h): 37777.8
- viral titer of culture media, individual replicate ([9]; 48h): 50000 (2×) and 20000 and 80000 and 10000 (3×) and 40000 and 70000
- viral titer of culture media, ave ([9]; 72h): 43333.3
- viral titer of culture media, individual replicate ([9]; 72h): 40000 and 20000 (2×) and 90000 and 10000 (2×) and 50000 and 70000 and 80000

Compound: C=C[C@]1(C)CC[C@@H](C(C)(C)O)[C@H](c2ccc(O)cc2)C1 [(1R,3S,4S)-cyclobakuchiol D]
- viral titer of culture media, ave ([1]; 12h): 10344.4
- viral titer of culture media, individual replicate ([1]; 12h): 600 and 2000 and 500 and 20000 (3×) and 10000 (3×)
- viral titer of culture media, ave ([1]; 24h): 25855556
- viral titer of culture media, individual replicate ([1]; 24h): 2700000 and 4000000 and 1000000 and 30000000 (2×) and 10000000 and 80000000 and 25000000 and 50000000
- viral titer of culture media, ave ([1]; 48h): 191111111
- viral titer of culture media, individual replicate ([1]; 48h): 80000000 and 50000000 (2×) and 300000000 (2×) and 250000000 (3×) and 190000000
- viral titer of culture media, ave ([1]; 72h): 140200000
- viral titer of culture media, individual replicate ([1]; 72h): 90000000 and 14000000 and 7800000 and 140000000 and 130000000 and 100000000 and 210000000 and 280000000 and 290000000
- viral titer of culture media, ave ([9]; 12h): 23333.3
- viral titer of culture media, individual replicate ([9]; 12h): 30000 (4×) and 40000 and 20000 and 10000 (3×)
- viral titer of culture media, ave ([9]; 24h): 46666.7
- viral titer of culture media, individual replicate ([9]; 24h): 100000 and 30000 and 80000 and 20000 and 10000 (2×) and 50000 (2×) and 70000
- viral titer of culture media, ave ([9]; 48h): 42222.2
- viral titer of culture media, individual replicate ([9]; 48h): 40000 (2×) and 30000 and 90000 and 10000 (2×) and 20000 and 80000 and 60000
- viral titer of culture media, ave ([9]; 72h): 51111.1
- viral titer of culture media, individual replicate ([9]; 72h): 100000 (2×) and 10000 (3×) and 40000 and 20000 and 90000 and 80000
